Results on one compound are retold here after paper PMC8580319, “Dual activities of ACC synthase: Novel clues regarding the molecular evolution of ACS genes” (Science Advances, 2021).

The structures appear in SMILES notation.

The target of one assay is T1, AtACS11 (Arabidopsis thaliana, UniProt Q9S9U6).
T1 construct: gene ACS11; recombinant, His or GST tag, from E. coli
T1 sequence (Q9S9U6 1-460): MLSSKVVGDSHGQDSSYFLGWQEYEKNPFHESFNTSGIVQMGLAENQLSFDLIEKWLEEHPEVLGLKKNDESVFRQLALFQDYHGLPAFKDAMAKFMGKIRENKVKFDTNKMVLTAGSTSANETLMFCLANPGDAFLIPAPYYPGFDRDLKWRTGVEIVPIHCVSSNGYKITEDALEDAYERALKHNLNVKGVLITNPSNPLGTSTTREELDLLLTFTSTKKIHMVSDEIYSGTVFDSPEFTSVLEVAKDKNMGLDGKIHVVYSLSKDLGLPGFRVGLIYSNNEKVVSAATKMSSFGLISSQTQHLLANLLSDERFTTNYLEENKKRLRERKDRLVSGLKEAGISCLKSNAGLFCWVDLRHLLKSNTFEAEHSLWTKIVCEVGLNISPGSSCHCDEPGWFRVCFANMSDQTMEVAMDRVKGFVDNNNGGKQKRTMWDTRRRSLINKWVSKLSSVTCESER
Briefly: pyruvate formation, […],4-dinitrophenylhydrazine, A520. Type of assay: biochemical. Conditions: Cβ-S lyase activity; 4 mM L-cystine, 100 μM PLP, 30°C.

In another assay the target is T2, AtACS7 (Arabidopsis thaliana, UniProt Q9STR4, Q98A).
T2 construct: gene ACS7; recombinant from E. coli Rosetta 2 (DE3) pLysS; pET-28a (His) or pGEX-6p-1 (GST); His-tagged protein for crystals; dimer
T2 sequence (Q9STR4 1-447 Q98A): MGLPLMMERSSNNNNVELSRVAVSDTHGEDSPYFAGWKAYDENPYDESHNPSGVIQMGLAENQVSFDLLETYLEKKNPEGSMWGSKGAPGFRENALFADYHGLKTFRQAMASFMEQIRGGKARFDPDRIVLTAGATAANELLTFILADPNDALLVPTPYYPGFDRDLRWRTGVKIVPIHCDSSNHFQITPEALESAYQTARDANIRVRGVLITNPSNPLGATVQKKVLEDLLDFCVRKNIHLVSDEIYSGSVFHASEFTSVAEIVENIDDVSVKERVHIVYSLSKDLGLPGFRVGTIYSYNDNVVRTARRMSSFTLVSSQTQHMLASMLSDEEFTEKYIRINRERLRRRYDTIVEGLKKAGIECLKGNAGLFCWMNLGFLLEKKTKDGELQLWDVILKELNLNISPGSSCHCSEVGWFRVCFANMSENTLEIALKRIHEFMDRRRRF
The assay is described as above. Conditions: Cβ-S lyase activity; 4 mM L-cystine, 100 μM PLP, 30°C. Type of assay: biochemical.

As for `N[C@@H](CSSC[C@H](N)C(=O)O)C(=O)O` [L-cystine], the “pyruvate formation, 2,4-dinitrophenylhydrazine, A520” value is “all of them had ACS and Cβ-S lyase dual enzymatic activities” at AtACS11; “the mutant had high in vitro Cβ-S lyase activity” on AtACS7.
